Consider eleven compounds from patent US20220220155A1, “VASCULAR C[…] USE THEREOF” (priority 2019, published 2022).

For one experiment, the target named is T1, PLA2-treated LDL (Homo sapiens, UniProt P04114).
T1 construct: from tissue; host or cells: pooled normolipemic human plasma
In words: Anti-LDL aggregation assay, turbidimetry, aggregation induced by phospholipase A2 (PLA2). The format is biochemical. Particulars: 18 h, read-out: Inhibition of LDL aggregation, PLA2-treated LDL. Here is the method: (§1) The efficacy of the novel compounds to inhibit the aggregation of LDL has been tested in two parallel turbidimetric assays differing from each other only in the enzyme used to induce LDL aggregation, namely sphingomyelinase (SMase) and phospholipase A2 (PLA2), respectively.
(§2) Human LDL (d1.019-d1.063 g/mL) were obtained from pooled normolipemic human plasma by sequential ultracentrifugation in a KBr density gradient. Briefly, VLDL were first discarded after spinning plasma at 36.000 rpm for 18 h at 4° C., VLDL-free plasma was layered with 1.063 g/mL KBr solution and centrifuged at 36,000 rpm for 18 h at 4° C. LDL were dialyzed against 0.02 M Tris, 0.15 M NaCl, 1 mM EDTA, pH 7.5 for 18 hours, and then against normal saline for 2 hours. Finally, isolated LDL were filter-sterilized. Protein concentration was determined using a colorimetric assay.
(§3) Human LDL particles (1.44 mg/mL) were incubated with 40 U/L of Bacillus cereus SMase or with 50 μg/L of type II secretory PLA2 from honey bee venom in 20 mM Tris buffer (pH 7.0) containing 150 mM NaCl, 2 mM CaCl2), and MgCl2 at 37° C. LDL incubation with SMase and PLA2 was performed at peptide concentration of 10 μM (ratio compound/ApoB-100: 4.7/1) for 18 hours. LDL lipolysis was stopped by addition of EDTA (final concentration 10 mM).
(§4) The efficiency of each novel compound to inhibit LDL aggregation induced by SMase and PLA2 was estimated by turbidimetry measuring the absorbance at a wavelength of 405 nm. Thus, the inhibitory activity was calculated according to Equation I.
(§5) a corresponds to the absorbance value in the presence of nLDL particles, LDL aggregating enzyme (i.e., SMase or PLA2) and test compound;
(§6) b corresponds to the absorbance value in the presence of only nLDL particles;
(§7) c corresponds to the absorbance value in the presence of nLDL particles and LDL aggregating enzyme (i.e., SMase or PLA2);

Experiment [1] concerns human coronary vascular smooth muscle cells (hcVSMC). Kind of experiment: Inhibition of intracellular cholesterol accumulation induced by SMase (CE/FC ratio). In kind it is cell-based. Particulars: hcVSMC exposed 2 hours to SMase-LDL treated overnight with peptide 10 μM; CE and FC by thin layer chromatography and densitometry, Equation II. Here is the method: Thus, the inhibitory effect of the novel compounds on the intracellular cholesterol accumulation has been analysed in terms of decrease in the ratio of intracellular CE and free cholesterol FC content of hcVSMC exposed to LDL and SMase-LDL.
All cells used were from a unique batch in order to prevent variability from cell origin. Cell quiescence was induced by maintaining the cell culture for 24 hours in a medium. Serum-deprived cells between passages 4 and 8 were used for experiments. VSMCs at these passages appeared as a relatively homogeneous population, showing a hill-and-valley confluence pattern. Cell monolayers were grown in vascular cell basal medium supplemented with vascular smooth muscle growth kit components. Quiescent cells were 2-hours exposed to LDL treated with SMase (in absence or presence of peptides) overnight at a concentration of 10 μM previously checked its aggregation by a turbidimetry test. Cells were then either collected for lipid extraction or processed for confocal microscopy analysis.
Following the lipoprotein incubation period, hcVSMC were exhaustively washed (twice with PBS, twice with PBS supplemented with 1% BSA, and once with PBS supplemented with both 1% BSA and 100 U/mL heparin), before they were harvested into 1 mL of 0.15 M NaOH. Lipids were extracted using the Bligh and Dyer method. The lipid extract was redissolved in dichloromethane, applied to silica gel plates, and separated by thin layer chromatography. A mixture of cholesterol and cholesterol palmitate, were also run as standards. Heptane or a solvent combination of heptane/diethylether/acetic acid (74:21:4, v/v/v) were used as chromatographic mobile phase. After lipid separation, the plates were dried and stained as previously reported. Finally, the spots corresponding to cholesteryl ester (CE) and free cholesterol (FC) were quantitated by densitometry.
The efficacy of each novel compound to decrease the ratio of intracellular cholesteryl esters (CE) and free cholesterol (FC) content of hcVSMC exposed to LDL and SMase-LDL was calculated according to Equation II.
a corresponds to the CE/FC ratio in hcVSMC exposed to SMase-LDL and in the presence of the test compound.
b corresponds to the CE/FC ratio in hcVSMC exposed to nLDL in the absence of the test compound.
c corresponds to the CE/FC ratio in hcVSMC exposed to SMase-LDL in the absence of the test compound.

The next experiment addresses T2, SMase-treated LDL (Homo sapiens, UniProt P04114).
T2 construct: from tissue; host or cells: pooled normolipemic human plasma
Kind of experiment: Anti-LDL aggregation assay, turbidimetry, aggregation induced by sphingomyelinase (SMase). The format is biochemical. Particulars: peptide 10 μM (compound/ApoB-100 4.7/1), human LDL 1.44 mg/mL, 40 U/L Bacillus cereus SMase, 18 hours, 37° C., absorbance at 405 nm, Equation I. On the procedure: as §1, §2, §3, §4, §5, §6, §7

Where a SMILES comes first, the peptide text is derived from it. [ ]: non-standard residue; d: D form.

T1 sequence (P04114 28-4563): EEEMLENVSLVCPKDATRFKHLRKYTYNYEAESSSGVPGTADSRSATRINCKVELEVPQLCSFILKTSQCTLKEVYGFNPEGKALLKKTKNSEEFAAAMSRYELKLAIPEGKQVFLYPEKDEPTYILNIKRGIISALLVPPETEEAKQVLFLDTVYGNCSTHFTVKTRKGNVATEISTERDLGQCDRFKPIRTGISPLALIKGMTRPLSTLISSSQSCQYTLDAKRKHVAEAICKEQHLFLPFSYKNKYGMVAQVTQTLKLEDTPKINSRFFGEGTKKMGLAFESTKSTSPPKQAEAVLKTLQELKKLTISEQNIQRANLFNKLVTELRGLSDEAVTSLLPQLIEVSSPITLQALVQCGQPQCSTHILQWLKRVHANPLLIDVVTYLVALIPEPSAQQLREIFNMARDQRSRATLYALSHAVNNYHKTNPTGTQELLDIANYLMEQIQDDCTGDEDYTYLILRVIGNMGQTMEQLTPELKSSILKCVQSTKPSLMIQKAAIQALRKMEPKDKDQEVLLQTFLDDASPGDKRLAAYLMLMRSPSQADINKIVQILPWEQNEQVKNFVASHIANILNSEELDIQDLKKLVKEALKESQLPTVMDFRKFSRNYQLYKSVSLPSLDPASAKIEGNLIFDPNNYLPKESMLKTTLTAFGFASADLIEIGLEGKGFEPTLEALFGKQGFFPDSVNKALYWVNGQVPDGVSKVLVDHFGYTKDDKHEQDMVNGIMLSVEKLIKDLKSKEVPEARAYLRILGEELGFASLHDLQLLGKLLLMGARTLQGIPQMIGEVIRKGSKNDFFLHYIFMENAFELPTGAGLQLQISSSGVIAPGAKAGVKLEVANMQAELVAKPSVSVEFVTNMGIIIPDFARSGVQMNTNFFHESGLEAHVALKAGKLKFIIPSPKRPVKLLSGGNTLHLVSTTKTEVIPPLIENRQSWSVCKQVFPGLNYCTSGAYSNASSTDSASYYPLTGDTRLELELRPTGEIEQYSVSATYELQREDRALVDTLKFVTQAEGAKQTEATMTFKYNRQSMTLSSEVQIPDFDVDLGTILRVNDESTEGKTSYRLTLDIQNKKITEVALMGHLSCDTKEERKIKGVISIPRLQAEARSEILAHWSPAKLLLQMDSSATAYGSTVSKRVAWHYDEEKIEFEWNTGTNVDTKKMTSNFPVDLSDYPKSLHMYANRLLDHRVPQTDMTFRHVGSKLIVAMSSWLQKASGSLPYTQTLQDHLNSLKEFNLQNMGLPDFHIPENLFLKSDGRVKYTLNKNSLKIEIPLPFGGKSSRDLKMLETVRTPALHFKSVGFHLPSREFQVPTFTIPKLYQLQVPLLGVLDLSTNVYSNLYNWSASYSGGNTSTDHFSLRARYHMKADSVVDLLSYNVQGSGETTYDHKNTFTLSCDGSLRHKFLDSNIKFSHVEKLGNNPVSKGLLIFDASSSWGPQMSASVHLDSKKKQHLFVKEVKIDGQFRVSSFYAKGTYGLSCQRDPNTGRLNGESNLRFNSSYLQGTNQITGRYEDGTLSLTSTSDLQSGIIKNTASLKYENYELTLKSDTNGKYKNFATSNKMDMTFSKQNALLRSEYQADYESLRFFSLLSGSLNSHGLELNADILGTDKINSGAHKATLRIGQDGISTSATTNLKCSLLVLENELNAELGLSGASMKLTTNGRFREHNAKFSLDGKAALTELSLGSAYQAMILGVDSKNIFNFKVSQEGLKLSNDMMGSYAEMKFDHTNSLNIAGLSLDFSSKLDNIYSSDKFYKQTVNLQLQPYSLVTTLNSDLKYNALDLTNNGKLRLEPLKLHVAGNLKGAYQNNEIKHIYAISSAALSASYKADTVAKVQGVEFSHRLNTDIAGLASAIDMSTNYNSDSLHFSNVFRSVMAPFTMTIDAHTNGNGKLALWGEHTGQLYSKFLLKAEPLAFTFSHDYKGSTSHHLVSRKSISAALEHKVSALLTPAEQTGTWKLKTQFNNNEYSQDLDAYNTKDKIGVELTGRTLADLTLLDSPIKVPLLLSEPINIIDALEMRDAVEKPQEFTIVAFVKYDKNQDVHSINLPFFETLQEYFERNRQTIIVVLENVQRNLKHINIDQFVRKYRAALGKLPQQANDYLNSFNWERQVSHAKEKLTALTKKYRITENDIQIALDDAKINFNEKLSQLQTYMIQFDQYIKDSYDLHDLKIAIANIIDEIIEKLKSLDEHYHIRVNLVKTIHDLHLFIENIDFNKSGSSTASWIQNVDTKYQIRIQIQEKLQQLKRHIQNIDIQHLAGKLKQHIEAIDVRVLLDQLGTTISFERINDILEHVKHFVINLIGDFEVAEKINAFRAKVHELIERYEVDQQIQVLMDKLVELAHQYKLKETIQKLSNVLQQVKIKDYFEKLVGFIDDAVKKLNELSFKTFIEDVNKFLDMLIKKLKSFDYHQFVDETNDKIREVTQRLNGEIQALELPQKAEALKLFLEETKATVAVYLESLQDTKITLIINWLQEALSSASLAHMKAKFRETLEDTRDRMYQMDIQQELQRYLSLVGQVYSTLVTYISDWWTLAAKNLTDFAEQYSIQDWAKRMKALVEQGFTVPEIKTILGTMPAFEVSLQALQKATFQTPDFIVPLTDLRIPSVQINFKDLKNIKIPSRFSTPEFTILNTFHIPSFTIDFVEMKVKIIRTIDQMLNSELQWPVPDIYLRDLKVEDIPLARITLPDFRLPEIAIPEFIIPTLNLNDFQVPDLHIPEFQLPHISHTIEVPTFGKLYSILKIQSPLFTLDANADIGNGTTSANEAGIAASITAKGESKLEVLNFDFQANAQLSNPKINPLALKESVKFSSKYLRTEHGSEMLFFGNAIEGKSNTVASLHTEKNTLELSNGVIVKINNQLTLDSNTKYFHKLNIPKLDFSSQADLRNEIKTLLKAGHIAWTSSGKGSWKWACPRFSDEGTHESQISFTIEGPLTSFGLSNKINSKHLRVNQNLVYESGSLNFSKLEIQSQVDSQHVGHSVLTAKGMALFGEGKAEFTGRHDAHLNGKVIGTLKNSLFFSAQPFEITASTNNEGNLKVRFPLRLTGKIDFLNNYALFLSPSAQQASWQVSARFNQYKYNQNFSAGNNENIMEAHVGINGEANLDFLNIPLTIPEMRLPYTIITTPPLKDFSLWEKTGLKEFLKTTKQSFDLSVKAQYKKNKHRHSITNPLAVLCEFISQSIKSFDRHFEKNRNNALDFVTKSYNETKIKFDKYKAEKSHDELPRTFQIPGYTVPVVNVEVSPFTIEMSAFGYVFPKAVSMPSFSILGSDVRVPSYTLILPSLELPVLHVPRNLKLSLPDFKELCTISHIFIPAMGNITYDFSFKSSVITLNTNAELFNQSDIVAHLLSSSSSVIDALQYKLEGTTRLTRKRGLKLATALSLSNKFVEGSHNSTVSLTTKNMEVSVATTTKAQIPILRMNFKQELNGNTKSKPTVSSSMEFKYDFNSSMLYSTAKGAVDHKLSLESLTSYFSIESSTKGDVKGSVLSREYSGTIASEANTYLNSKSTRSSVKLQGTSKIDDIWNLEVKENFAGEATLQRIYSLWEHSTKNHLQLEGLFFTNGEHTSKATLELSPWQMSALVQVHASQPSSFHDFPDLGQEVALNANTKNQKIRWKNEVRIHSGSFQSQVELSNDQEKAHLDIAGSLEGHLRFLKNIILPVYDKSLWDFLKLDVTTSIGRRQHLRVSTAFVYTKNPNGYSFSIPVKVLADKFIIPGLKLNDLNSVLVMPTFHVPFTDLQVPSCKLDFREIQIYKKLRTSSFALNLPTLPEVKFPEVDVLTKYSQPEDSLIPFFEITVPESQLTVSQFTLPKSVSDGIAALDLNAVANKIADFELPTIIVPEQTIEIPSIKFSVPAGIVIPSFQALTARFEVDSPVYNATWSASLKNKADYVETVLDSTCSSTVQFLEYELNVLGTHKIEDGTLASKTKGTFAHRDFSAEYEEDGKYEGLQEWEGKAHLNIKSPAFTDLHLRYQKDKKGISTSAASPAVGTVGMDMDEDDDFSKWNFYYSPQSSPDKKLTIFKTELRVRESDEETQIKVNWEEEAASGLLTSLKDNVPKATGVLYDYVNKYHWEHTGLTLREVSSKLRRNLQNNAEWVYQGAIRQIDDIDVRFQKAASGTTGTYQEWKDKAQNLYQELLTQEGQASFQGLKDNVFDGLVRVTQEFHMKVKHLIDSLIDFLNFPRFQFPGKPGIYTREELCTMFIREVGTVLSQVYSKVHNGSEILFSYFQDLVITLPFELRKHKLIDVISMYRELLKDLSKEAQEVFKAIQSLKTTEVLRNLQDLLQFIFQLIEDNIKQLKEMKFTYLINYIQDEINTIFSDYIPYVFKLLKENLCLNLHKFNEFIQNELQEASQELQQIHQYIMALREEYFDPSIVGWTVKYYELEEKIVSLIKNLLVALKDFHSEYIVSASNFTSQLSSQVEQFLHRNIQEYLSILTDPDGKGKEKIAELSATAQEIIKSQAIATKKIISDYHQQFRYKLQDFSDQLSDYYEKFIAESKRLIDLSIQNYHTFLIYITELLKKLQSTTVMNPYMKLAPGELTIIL
T2 sequence (P04114 28-4563): as above

The inhibition is the change of the read-out against control, counted positive when it falls. Turning to `CC(=O)NCC(=O)N[C@H](CC(=O)O)C(=O)N[C@H](CC(N)=O)C(=O)N[C@H](CC(=O)O)C(=O)N[C@H](CO)C(=O)N[C@H](CCC(=O)O)C(=O)N[C@H](CC(=O)O)C(=O)N[C@H](CC(N)=O)C(=O)N[C@H](CO)C(=O)N[C@H](CC(=O)O)C(=O)N[C@H](CCC(=O)O)C(=O)N[C@H](CCC(=O)O)C(=O)N[C@H](CC(N)=O)C(N)=O` [Example 1, Ac-Gly-D-Asp-D-Asn-D-Asp-D-Ser-D-Glu-D-Asp-D-Asn-D-Ser-D-Asp-D-Glu-D-lu-D-Asn-NH2] (Ac-G[dD][dN][dD][dS][dE][dD][dN][dS][dD][dE][dE][dN]-NH2), the figures for the inhibition at 10 µM at PLA2-treated LDL and against SMase-treated LDL were 77.5% and 92.5%, respectively. Moreover, the “CE/FC ratio decrease (%)” value in experiment [1] worked out at 76.5%.
`CC(=O)N[C@H](CO)C(=O)N[C@H](CCC(=O)O)C(=O)N[C@H](CC(=O)O)C(=O)N[C@H](CC(N)=O)C(=O)N[C@H](CO)C(=O)N[C@H](CC(=O)O)C(=O)N[C@H](CCC(=O)O)C(=O)N[C@H](CCC(=O)O)C(=O)N[C@H](CC(N)=O)C(N)=O` [Example 2, Ac-D-Ser-D-Glu-D-Asp-D-Asn-D-Ser-D-Asp-D-Glu-D-Glu-D-Asn-NH2] (Ac-[dS][dE][dD][dN][dS][dD][dE][dE][dN]-NH2): the inhibition at 10 µM on PLA2-treated LDL is 87.7%; at SMase-treated LDL it was 80.7%. In experiment [1], the “CE/FC ratio decrease (%)” value is 58.8%.
Turning to `CC(=O)N[C@H](CO)C(=O)N[C@H](CCC(=O)O)C(=O)N[C@H](CC(=O)O)C(=O)N[C@H](CC(N)=O)C(=O)N[C@H](C)C(=O)N[C@H](CC(=O)O)C(=O)N[C@H](CCC(=O)O)C(=O)N[C@H](CCC(=O)O)C(=O)N[C@H](C)C(N)=O` [Example 3, Ac-D-Ser-D-Glu-D-Asp-D-Asn-D-Ala-D-Asp-D-Glu-D-Glu-D-Ala-NH2] (Ac-[dS][dE][dD][dN][dA][dD][dE][dE][dA]-NH2), the inhibition at 10 µM is 37.2% at PLA2-treated LDL and 90% against SMase-treated LDL.
With `CC(=O)N[C@H](CO)C(=O)N[C@H](CCC(=O)O)C(=O)N[C@H](CC(=O)O)C(=O)N[C@H](CCC(N)=O)C(=O)N[C@H](CO)C(=O)N[C@H](CCC(=O)O)C(=O)N[C@H](CCC(=O)O)C(=O)N[C@H](CCC(=O)O)C(=O)N[C@H](CCC(N)=O)C(N)=O` [Example 4, Ac-D-Ser-D-Glu-D-Asp-D-Gln-D-Ser-D-Glu-D-Glu-D-Glu-D-Gln-NH2] (Ac-[dS][dE][dD][dQ][dS][dE][dE][dE][dQ]-NH2), the inhibition at 10 µM was 32.6% at PLA2-treated LDL and 91.5% against SMase-treated LDL.
Turning to `CC(=O)N[C@H](CO)C(=O)N[C@H](CCC(=O)O)C(=O)N[C@H](CC(=O)O)C(=O)N[C@H](CCC(N)=O)C(=O)N[C@H](C)C(=O)N[C@H](CCC(=O)O)C(=O)N[C@H](CCC(=O)O)C(=O)N[C@H](CCC(=O)O)C(=O)N[C@H](C)C(N)=O` [Example 5, Ac-D-Ser-D-Glu-D-Asp-D-Gln-D-Ala-D-Glu-D-Glu-D-Glu-D-Ala-NH2] (Ac-[dS][dE][dD][dQ][dA][dE][dE][dE][dA]-NH2), the values for the inhibition at 10 µM on PLA2-treated LDL and against SMase-treated LDL were 20.7% and 90.1%, respectively.
Consider `CC(=O)N[C@H](CO)C(=O)N[C@H](CCC(=O)O)C(=O)N[C@H](CC(=O)O)C(=O)N[C@H](CC(N)=O)C(=O)N[C@H](CCCNC(=N)N)C(=O)N[C@H](CC(=O)O)C(=O)N[C@H](CCC(=O)O)C(=O)N[C@H](CCC(=O)O)C(=O)N[C@H](CCCNC(=N)N)C(N)=O` [Example 6, Ac-D-Ser-D-Glu-D-Asp-D-Asn-D-Arg-D-Asp-D-Glu-D-Glu-D-Arg-NH2] (Ac-[dS][dE][dD][dN][dR][dD][dE][dE][dR]-NH2), for which the inhibition at 10 µM was determined as 15.3% at PLA2-treated LDL and 85% against SMase-treated LDL. In addition, the “CE/FC ratio decrease (%)” value in experiment [1] is 58.8%.
For the compound `CC(=O)N[C@H](CO)C(=O)N[C@H](CCC(=O)O)C(=O)N[C@H](CC(=O)O)C(=O)N[C@H](CC(N)=O)C(=O)N[C@H](CCCNC(=N)N)C(=O)N[C@H](CC(=O)O)C(=O)N[C@H](CCC(=O)O)C(=O)N[C@H](CCC(=O)O)C(=O)N[C@H](CC(C)C)C(N)=O` [Example 7, Ac-D-Ser-D-Glu-D-Asp-D-Asn-D-Arg-D-Asp-D-Glu-D-Glu-D-Leu-NH2] (Ac-[dS][dE][dD][dN][dR][dD][dE][dE][dL]-NH2), the values for the inhibition at 10 µM on PLA2-treated LDL and against SMase-treated LDL were -1.9% and 44.7%, respectively.
In the same order, the values of `CC(=O)N[C@H](CO)C(=O)N[C@H](CCC(=O)O)C(=O)N[C@H](CC(=O)O)C(=O)N[C@H](CC(N)=O)C(=O)N[C@H](CCCNC(=N)N)C(=O)N[C@H](CC(=O)O)C(=O)N[C@H](CCC(=O)O)C(=O)N[C@H](CCC(=O)O)C(=O)N[C@H](Cc1c[nH]c2ccccc12)C(N)=O` [Example 8, Ac-D-Ser-D-Glu-D-Asp-D-Asn-D-Arg-D-Asp-D-Glu-D-Glu-D-Trp-NH2] (Ac-[dS][dE][dD][dN][dR][dD][dE][dE][dW]-NH2) are 3.1% and 64.2%.
As to `CC(=O)N[C@H](CO)C(=O)N[C@H](CCC(=O)O)C(=O)N[C@H](CC(=O)O)C(=O)N[C@H](CC(N)=O)C(=O)N[C@H](CCCCN)C(=O)N[C@H](CC(=O)O)C(=O)N[C@H](CCC(=O)O)C(=O)N[C@H](CCC(=O)O)C(=O)N[C@H](CC(N)=O)C(N)=O` [Example 9, Ac-D-Ser-D-Glu-D-Asp-D-Asn-D-Lys-D-Asp-D-Glu-D-Glu-D-Asn-NH2] (Ac-[dS][dE][dD][dN][dK][dD][dE][dE][dN]-NH2), the figures for the inhibition at 10 µM on PLA2-treated LDL and at SMase-treated LDL were 36.4% and 91%, respectively. For the same compound, the “CE/FC ratio decrease (%)” value in experiment [1] is on record as 58.8%.
`CC(=O)N[C@H](CC(=O)O)C(=O)N[C@H](CC(N)=O)C(=O)N[C@H](CC(=O)O)C(=O)N[C@H](CO)C(=O)N[C@H](CCC(=O)O)C(=O)N[C@H](CC(=O)O)C(=O)N[C@H](CC(N)=O)C(=O)N[C@H](CO)C(=O)N[C@H](CC(=O)O)C(=O)N[C@H](CCC(=O)O)C(=O)N[C@H](CCC(=O)O)C(=O)N[C@H](CC(N)=O)C(N)=O` [Example 10, Ac-D-Asp-D-Asn-D-Asp-D-Ser-D-Glu-D-Asp-D-Asn-D-Ser-D-Asp-D-Glu-D-Glu-D-Asn-NH2] (Ac-[dD][dN][dD][dS][dE][dD][dN][dS][dD][dE][dE][dN]-NH2): the inhibition at 10 µM on PLA2-treated LDL stood at 94%; at SMase-treated LDL, 96%. Further, in experiment [1], the “CE/FC ratio decrease (%)” value is recorded as 78.4%.
In the same order, the values of `CC(=O)N[C@H](CC(N)=O)C(=O)N[C@H](CC(=O)O)C(=O)N[C@H](CO)C(=O)N[C@H](CCC(=O)O)C(=O)N[C@H](CC(=O)O)C(=O)N[C@H](CC(N)=O)C(=O)N[C@H](CO)C(=O)N[C@H](CC(=O)O)C(=O)N[C@H](CCC(=O)O)C(=O)N[C@H](CCC(=O)O)C(=O)N[C@H](CC(N)=O)C(N)=O` [Example 11, Ac-D-Asn-D-Asp-D-Ser-D-Glu-D-Asp-D-Asn-D-Ser-D-Asp-D-Glu-D-Glu-D-Asn-NH2] (Ac-[dN][dD][dS][dE][dD][dN][dS][dD][dE][dE][dN]-NH2) are 95.2%, 94.8% and 76.5%.
